Measurements published in DBAASP.
≈ marks a conversion by molar mass, not a printed value. Each block holds one molecule with its values, some of them ahead of it.

Tests used:
Experiment in all cases: ≥ marks a high value that may be exact or a test limit, other limits are often not marked, values filed in µg/mL are converted to µM
[1] = system: Salmonella enterica subsp. enterica serovar Choleraesuis CMCC 50020
[2] = system: Staphylococcus aureus ATCC 25923
[3] = system: Escherichia coli ATCC 25922
Bacillus subtilis 1A751 = system: Bacillus subtilis 1A751
[4] = system: Klebsiella pneumoniae ATCC 700603
[5] = system: Candida albicans ATCC 90028
[6] = system: Staphylococcus epidermidis RP62A/1
[7] = system: Staphylococcus epidermidis RP62A
[8] = system: Escherichia coli ATCC 25726
[9] = system: Pseudomonas aeruginosa ATCC 27853
[10] = system: Staphylococcus aureus ATCC 29213
Acinetobacter baumannii = system: Acinetobacter baumannii
[11] = system: Proteus mirabilis ATCC 25933
[12] = system: Stenotrophomonas maltophilia
[13] = system: Schizosaccharomyces pombe
Staphylococcus capitis 1 = system: Staphylococcus capitis 1
Escherichia coli D21 = system: Escherichia coli D21
[14] = system: Pseudomonas aeruginosa ATCC 15692
[15] = system: Staphylococcus epidermidis ATCC 12228
[16] = system: Acinetobacter baumannii ATCC 19606
Acinetobacter junii RT-4 = system: Acinetobacter junii RT-4
[17] = system: Streptococcus pyogenes ATCC 21547
Bacillus megaterium Bm11 = system: Bacillus megaterium Bm11
[18] = system: Staphylococcus aureus Cowan 1
Saccharomyces cerevisiae = system: Saccharomyces cerevisiae
[19] = system: Yersinia pseudotuberculosis YPIII
[20] = system: Candida albicans ATCC 10231
[21] = system: Pseudomonas syringae pv. tabaci 1918NCPPB
[22] = system: Enterococcus faecalis ATCC 29212
Pseudomonas fluorescens = system: Pseudomonas fluorescens
[23] = system: Bacillus thuringiensis AB93100
Pseudomonas putida = system: Pseudomonas putida
[24] = system: Salmonella enterica AB2010185
[25] = system: Staphylococcus aureus AB94004
[26] = system: Escherichia coli DH5alpha
[27] = system: Bacillus magaterium AB90008
Escherichia coli JM109 = system: Escherichia coli JM109
[28] = system: Klebsiella oxytoca AB2010143
[29] = system: Enterobacter cloacae subsp. cloacae AB2010162
[30] = system: Candida tropicalis AY91009

MIC [2]: 4.61 µM (≈ 16 µg/mL)
MIC [3]: 4.61 µM (≈ 16 µg/mL)
MIC (Bacillus subtilis 1A751): 1.15 µM (≈ 4 µg/mL)
SMILES: CC[C@H](C)[C@H](NC(=O)[C@H](CCCCN)NC(=O)[C@H](CC(=O)O)NC(=O)[C@H](CC(C)C)NC(=O)[C@@H](NC(=O)[C@H](CC(N)=O)NC(=O)[C@H](CC(C)C)NC(=O)[C@H](Cc1ccccc1)NC(=O)[C@H](Cc1ccccc1)NC(=O)[C@H](CCCCN)NC(=O)[C@H](CCCCN)NC(=O)CNC(=O)[C@H](C)NC(=O)[C@H](CCC(N)=O)NC(=O)[C@H](CCCCN)NC(=O)[C@@H](NC(=O)[C@@H](NC(=O)[C@H](CC(=O)O)NC(=O)[C@H](Cc1c[nH]c2ccccc12)NC(=O)[C@H](CC(C)C)NC(=O)CN)[C@@H](C)O)[C@@H](C)CC)C(C)C)C(=O)N[C@@H](CCCN=C(N)N)C(=O)N[C@H]1CSSC[C@@H](C(=O)N[C@@H](CCCN=C(N)N)C(=O)N[C@H](C(=O)O)[C@@H](C)O)NC(=O)CNC(=O)CNC(=O)[C@H](C)NC(=O)[C@H](C(C)C)NC(=O)[C@H](CCCCN)NC1=O [GLWDTIKQAGKKFFLNVLDKIRCKVAGGCRT]
MIC [1]: ≥ 36.9 µM

MIC [4]: 6.25 µM (≈ 19.1 µg/mL)
MIC [5]: ≥ 100 µM
MIC [6]: 0.8 µM (≈ 2.45 µg/mL)
MIC [7]: 0.8 µM (≈ 2.45 µg/mL)
MIC [2]: 1.6 µM (≈ 4.9 µg/mL)
MIC [8]: 6.25 µM (≈ 19.1 µg/mL)
MIC [9]: 12.5 µM (≈ 38.3 µg/mL)
MIC [10]: 3.1 µM (≈ 9.49 µg/mL)
MIC (Acinetobacter baumannii): 6.25 µM (≈ 19.1 µg/mL)
MIC [11]: ≥ 100 µM
MIC [12]: 1.6 µM (≈ 4.9 µg/mL)
SMILES: CC[C@H](C)[C@H](N)C(=O)N[C@@H](CCCCN)C(=O)N[C@@H](CC(C)C)C(=O)N[C@@H](CO)C(=O)N1CCC[C@H]1C(=O)N[C@@H](CCCCN)C(=O)N[C@H](C(=O)N[C@@H](CCCCN)C(=O)N[C@@H](CC(=O)O)C(=O)N[C@@H](CC(N)=O)C(=O)N[C@@H](CC(C)C)C(=O)N[C@@H](CCCCN)C(=O)N[C@@H](CCCCN)C(=O)N[C@H](C(=O)N[C@@H](CC(C)C)C(=O)N[C@@H](CCCCN)C(=O)NCC(=O)N[C@@H](C)C(=O)N[C@H](C(=O)N[C@@H](CCCCN)C(=O)NCC(=O)N[C@@H](C)C(=O)N[C@H](C(=O)N[C@@H](C)C(=O)N[C@H](C(=O)N[C@@H](C)C(=O)N[C@@H](CCCCN)C(=O)N[C@@H](CCSC)C(=O)N[C@H](C(N)=O)C(C)C)C(C)C)[C@@H](C)CC)[C@@H](C)CC)C(C)C)[C@@H](C)O [IKLSPKTKDNLKKVLKGAIKGAIAVAKMV]

MIC [13]: 3 µM (≈ 4.66 µg/mL)
MIC (Staphylococcus capitis 1): 1.5 µM (≈ 2.33 µg/mL)
MIC (Escherichia coli D21): 12 µM (≈ 18.6 µg/mL)
MIC [2]: 3 µM (≈ 4.66 µg/mL)
MIC [3]: 6 µM (≈ 9.31 µg/mL)
MIC [14]: 12 µM (≈ 18.6 µg/mL)
MIC [9]: 24 µM (≈ 37.2 µg/mL)
MIC [15]: 1.5 µM (≈ 2.33 µg/mL)
MIC [16]: 12 µM (≈ 18.6 µg/mL)
MIC (Acinetobacter junii RT-4): 24 µM (≈ 37.2 µg/mL)
MIC [17]: 6 µM (≈ 9.31 µg/mL)
MIC (Bacillus megaterium Bm11): 1.5 µM (≈ 2.33 µg/mL)
MIC [18]: 1.5 µM (≈ 2.33 µg/mL)
MIC (Saccharomyces cerevisiae): 3 µM (≈ 4.66 µg/mL)
MIC [19]: 3 µM (≈ 4.66 µg/mL)
MIC [20]: 6 µM (≈ 9.31 µg/mL)
MIC [21]: 6 µM (≈ 9.31 µg/mL)
MIC [22]: 3 µM (≈ 4.66 µg/mL)
SMILES: CC(C)C[C@H](NC(=O)[C@H](CC(C)C)NC(=O)[C@H](CCCN=C(N)N)NC(=O)CNC(=O)[C@H](CC(C)C)NC(=O)[C@H](CC(C)C)NC(=O)[C@H](CCCCN)NC(=O)[C@H](CO)NC(=O)[C@H](CC(C)C)NC(=O)[C@H](Cc1c[nH]c2ccccc12)NC(=O)[C@H](CCC(N)=O)NC(=O)[C@H](CC(C)C)NC(=O)[C@@H](N)CC(C)C)C(N)=O [LLQWLSKLLGRLL]

MIC (Pseudomonas fluorescens): 23.8 µM (≈ 77.3 µg/mL)
MIC [23]: ≥ 46.5 µM
MIC (Pseudomonas putida): 24 µM (≈ 77.9 µg/mL)
MIC [24]: 25 µM (≈ 81.2 µg/mL)
MIC [25]: 23.6 µM (≈ 76.6 µg/mL)
MIC [26]: ≥ 51.2 µM
MIC [27]: 11.8 µM (≈ 38.3 µg/mL)
MIC (Escherichia coli JM109): ≥ 50.4 µM
MIC [28]: ≥ 50.5 µM
MIC [29]: ≥ 47.9 µM
MIC [30]: ≥ 48.6 µM
SMILES: CC[C@H](C)[C@H](NC(=O)[C@H](CC(C)C)NC(=O)[C@H](CCCN=C(N)N)NC(=O)[C@H](CCCCN)NC(=O)[C@@H](NC(=O)[C@@H](NC(=O)CNC(=O)[C@H](CC(C)C)NC(=O)[C@H](CC(C)C)NC(=O)[C@H](CCCN=C(N)N)NC(=O)CNC(=O)[C@H](CO)NC(=O)[C@H](CCC(=O)O)NC(=O)[C@H](CCCN=C(N)N)NC(=O)[C@H](CCC(=O)O)NC(=O)[C@H](CCCCN)NC(=O)[C@H](CCC(=O)O)NC(=O)[C@H](CO)NC(=O)[C@@H](NC(=O)CNC(=O)[C@@H](N)CO)[C@@H](C)O)C(C)C)C(C)C)C(=O)N[C@H](C(=O)N[C@@H](CS)C(=O)N[C@@H](Cc1ccccc1)C(=O)N[C@@H](CCCN=C(N)N)C(=O)N[C@@H](CO)C(=O)N1CCC[C@H]1C(=O)N[C@@H](Cc1ccccc1)C(=O)N1CCC[C@H]1C(N)=O)C(C)C [SGTSEKERESGRLLGVVKRLIVCFRSPFP]
